Key:
atrium = assay: Effects on the atrial effective refractory period (S1-S2 extrastimulus technique during bilateral vagal nerve stimulation) in anesthetized beagles; format: in vivo; conditions: intravenous, from 5 minutes after administration, basic cycle length 300 msec
Procedure: Effects on the Effective Refractory Period
Beagles were anesthetized with pentobarbital sodium and thoracotomy was done along the median line under a respirator and the incision was made on the pericardium to expose the heart. An electrocardiogram (ECG) was recorded using bipolar electrodes attached to the surface of the right atrial free wall, right atrial auricle, and right ventricular free wall. The vagal nerves were stimulated using an electrostimulation device with Nichrome wires inserted into the vagal nerves in the neck bilaterally. The conditions for electrostimulation to the vagal nerves were set such that the RR intervals on ECG were prolonged by about 100 msec compared with those before the stimulation was started.
Atrial and ventricular effective refractory periods were determined by S1-S2 extrastimulus technique at basic cycle length of 300 msec during bilateral vagal nerve stimulation, using programmable electric stimulator. A train of 10 basic stimuli (S1) was followed by a premature extrastimulus (S2) at 2 times diastolic threshold.
For evaluation of drug effects, the atrial and ventricular effective refractory periods were determined before drug administration, then respective compound was administrated intravenously at the dose of 0.3 mg/kg or 0.6 mg/kg, and the atrial and ventricular effective refractory periods were determined from 5 minutes after the administration.
The results were shown as the prolongation time on the atrial and ventricular effective refractory periods, i.e. [effective refractory period after drug administration]−[effective refractory period before drug administration] (msec).

| Compound | Atrial Refractory Period (prolongation time on the atrial effective refractory period) (atrium; 0.6 mg/kg) [ms] | melting point | Atrial Refractory Period (prolongation time on the atrial effective refractory period) (atrium; 0.3 mg/kg) [ms] |
| --- | --- | --- | --- |
| Cc1cc(C)c2cc3c(cc2n1)C(NCCc1ccccc1)C(O)C(C)(C)O3 (racemic) [Synthesis Example 2, (±)-trans-2,2,7,9-Tetramethyl-4-[(2-phenylethyl)amino]-3,4-dihydro-2H-pyrano[2,3-g]quinolin-3-ol] | 21 | 144 to 147 °C |  |
| Cc1cc(Cl)nc2cc3c(cc12)OC(C)(C)C(O)C3NCCc1ccccc1.O=C(O)/C=C\C(=O)O (racemic) [Synthesis Example 6, (±)-trans-7-Chloro-2,2,9-trimethyl-4-[(2-phenylethyl)amino]-3,4-dihydro-2H-pyrano[2,3-g]quinolin-3-ol 1 maleate] | 20 | 221 to 226 °C (dec.) |  |
| Cc1cc(C#N)nc2cc3c(cc12)OC(C)(C)C(O)C3NCCc1ccccc1.O=C(O)/C=C\C(=O)O (racemic) [Synthesis Example 7, (±)-trans-3-Hydroxy-2,2,9-trimethyl-4-[(2-phenylethyl)amino]-3,4-dihydro-2H-pyrano[2,3-g]quinoline-7-carbonitrile 1 maleate] | 25 | 218 to 220 °C (dec.) |  |
| CC1(C)Oc2ccc3ncccc3c2C(NCCc2ccccc2)C1O (racemic) [Synthesis Example 8, (±)-trans-3,3-Dimethyl-1-[(2-phenylethyl)amino]-2,3-dihydro-1H-pyrano[3,2-f]quinolin-2-ol] | 23 | 180 to 182 °C |  |
| Cc1cc(Cl)[n+]([O-])c2cc3c(cc12)OC(C)(C)[C@H](O)[C@H]3NCCc1ccccc1.Cl (relative stereo) |  | 174 to 179 °C (dec.) |  |
| Cc1cc(Cl)[n+]([O-])c2cc3c(cc12)OC(C)(C)[C@H](O)[C@H]3NCCc1ccc(F)cc1.Cl (relative stereo) |  | 193 to 198 °C (dec.) |  |
| Cc1ccc2cc3c(cc2n1)[C@H](NCCc1ccccc1)[C@@H](O)C(C)(C)O3.O=C(O)/C=C\C(=O)O (relative stereo) [Synthesis Example 13, (3R*,4S*)-2,2,7-trimethyl-4-[(2-phenylethyl)amino]-3,4-dihydro-2H-pyrano[2,3-g]quinolin-3-ol 1 maleate] |  | 214 to 217 °C (dec.) |  |
| Cc1cc(C(N)=O)nc2cc3c(cc12)OC(C)(C)[C@H](O)[C@H]3NCCc1ccccc1 (relative stereo) [Synthesis Example 15, (3R*,4S*)-3-hydroxy-2,2,9-trimethyl-4-[(2-phenylethyl)amino]-3,4-dihydro-2H-pyrano[2,3-g]quinoline-7-carboxamide] |  | 168 to 169 °C |  |
| Cc1cc(Cl)nc2cc3c(cc12)OC(C)(C)[C@@H](O)[C@@H]3NCCc1ccccc1.O=C(O)/C=C\C(=O)O (relative stereo) [Synthesis Example 50, (3S*,4R*)-7-chloro-2,2,9-trimethyl-4-[(2-phenylethyl)amino]-3,4-dihydro-2H-pyrano[2,3-g]quinolin-3-ol 1 maleate] |  | 240 to 242 °C |  |
| Cc1cc(C)c2cc3c(cc2n1)[C@@H](NCCc1ccccc1)[C@H](O)C(C)(C)O3.O=C(O)/C=C\C(=O)O (relative stereo) [Synthesis Example 51, (3R*,4R*)-2,2,7,9-tetramethyl-4-[(2-phenethyl)amino]-3,4-dihydro-2H-pyrano[2,3-g]quinolin-3-ol 1 maleate] |  | 215 to 216 °C (dec.) |  |
| Cc1cc(Cl)nc2cc3c(cc12)OC(C)(C)[C@H](O)[C@H]3NCCC1CCCCC1.Cl (relative stereo) [Synthesis Example 53, (3R*,4S*)-7-chloro-2,2,9-trimethyl-4-[(2-cyclohexylethyl)amino]-3,4-dihydro-2H-pyrano[2,3-g]quinolin-3-ol hydrochloride] |  | 294 to 295 °C (dec.) | 30 |
| CCCCCN[C@H]1c2cc3nccnc3cc2OC(C)(C)[C@@H]1O.Cl (relative stereo) [Synthesis Example 63, (3R*,4S*)-2,2-dimethyl-4-pentylamino-3,4-dihydro-2H-pyrano[2,3-g]quinoxalin-3-ol hydrochloride] |  | 209 to 212 °C (dec.) | 23 |
| Cc1cnc2cc3c(cc2n1)OC(C)(C)[C@H](O)[C@H]3NCCc1ccccc1.O=C(O)/C=C\C(=O)O (relative stereo) [Synthesis Example 68, (3R*,4S*)-2,2,8-trimethyl-4-[(2-phenylethyl)amino]-3,4-dihydro-2H-pyrano[2,3-g]quinoxalin-3-ol 1 maleate] |  | 189 to 192 °C (dec.) |  |
| CC1(C)Oc2cc3nccnc3cc2[C@H](NCCC2CCCCC2)[C@H]1O.Cl (relative stereo) [Synthesis Example 69, (3R*,4S*)-4-[(2-cyclohexylethyl)amino)]-2,2-dimethyl-3,4-dihydro-2H-pyrano[2,3-g]quinoxalin-3-ol hydrochloride] |  | 258 to 259 °C (dec.) | 37 |
| Cc1cc(CO)nc2cc3c(cc12)OC(C)(C)[C@H](O)[C@H]3NCCc1ccc(F)cc1 (relative stereo) [Synthesis Example 76, (3R*,4S*)-4-{[2-(4-fluorophenyl)ethyl]amino}-7-hydroxymethyl-2,2,9-trimethyl-3,4-dihydro-2H-pyrano[2,3-g]quinolin-3-ol] |  | 147 to 152 °C |  |
| CC1(C)Oc2cc3cccnc3cc2[C@H](NCCc2ccccc2)[C@H]1O.O=C(O)/C=C\C(=O)O (relative stereo) [Synthesis Example 77, (3R*,4S*)-2,2-dimethyl-4-[(2-phenylethyl)amino]-3,4-dihydro-2H-pyrano[2,3-g]quinolin-3-ol 1 maleate] |  | 187 to 192 °C (dec.) | 25 |
| Cc1cc(CN)nc2cc3c(cc12)OC(C)(C)[C@H](O)[C@H]3NCCc1ccccc1.O=C(O)/C=C\C(=O)O (relative stereo) [Synthesis Example 83, (3R*,4S*)-7-aminomethyl-2,2,9-trimethyl-4-[(2-phenylethyl)amino]-3,4-dihydro-2H-pyrano[2,3-g]quinolin-3-ol 2 maleate] |  | 136 to 140 °C |  |
| CC1(C)Oc2cc3c(CO)ccnc3cc2[C@H](NCCc2ccccc2)[C@H]1O.O=C(O)/C=C\C(=O)O (relative stereo) [Synthesis Example 84, (3R*,4S*)-9-hydroxymethyl-2,2-dimethyl-4-[(2-phenylethyl)amino)]-3,4-dihydro-2H-pyrano[2,3-g]quinolin-3-ol 1 maleate] |  | 163 to 169 °C (dec.) |  |
| Cc1cc(O)nc2cc3c(cc12)OC(C)(C)[C@H](O)[C@H]3NCCc1ccccc1.O=C(O)/C=C\C(=O)O (relative stereo) [Synthesis Example 85, (3R*,4S*)-2,2,9-trimethyl-4-[(2-phenylethyl)amino)]-3,4-dihydro-2H-pyrano[2,3-g]quinolin-3,7-diol 3/2 maleate] |  | 184 to 188 °C (dec.) |  |
| CC1(C)Oc2ccc3ncccc3c2C(NCCc2ccccc2)C1O (stereo not drawn) [Synthesis Example 17, (1R*,2R*)-3,3-dimethyl-1-[(2-phenylethyl)amino]-2,3-dihydro-1H-pyrano[3,2-f]quinolin-2-ol] |  | 170 to 171 °C |  |
| CC1(C)Oc2cc3c(cc2C(NCCc2ccccc2)C1O)N(Cc1ccccc1)C(=O)C3 (centres unmarked) [Synthesis Example 90, 1-Benzyl-7-hydroxy-6,6-dimethyl-8-phenetylamino-3,6,7,8-tetrahydro-1H-pyrano[2,3-f]indole-2-one] |  | 195 °C (dec.) |  |

Reference: patent US7964623B2, “Tricyclic benzopyrane compound” (Nissan Chemical Industries Ltd., priority 2004, dated 2011)
